Experimental data from patent publication US5300629A, “Bactericidal and/or bacteriostatic peptides isolated from hemolymph of honeybees” (Plant Genetic Systems, N.V., priority 1987, dated 1994).
≈ marks a conversion by molar mass, not a printed value. Where a SMILES comes first, the peptide text is derived from it.

What was measured:
Format in all cases: cell-based
[1] = system: Pseudomonas cepacia ATCC 25416; assay: Inhibition zone assay; design: key: --: "-" means that no inhibition has been found; details: I and B 10 ul, L 5 ug
[2] = system: Serratia fonticola ATCC 298449; assay: Inhibition zone assay; design: key: --: "-" means that no inhibition has been found; details: I and B 10 ul, L 5 ug
[3] = system: Pseudomonas aureofaciens CCEB 518; assay: Inhibition zone assay; design: key: --: "-" means that no inhibition has been found; details: I and B 10 ul, L 5 ug
[4] = system: Xanthomonas campestris pv. graminis NCPPB 2700; assay: Inhibition zone assay; design: key: --: "-" means that no inhibition has been found; details: I and B 10 ul, L 5 ug
[5] = system: Rhodococcus equi ATCC 25729; assay: Inhibition zone assay; details: I and B 10 ul, L 5 ug
[6] = system: Proteus morganii CuETM 77-83; assay: Inhibition zone assay; design: key: --: "-" means that no inhibition has been found; details: I and B 10 ul, L 5 ug
[7] = system: Janthinobacterium lividum Sneath HB; assay: Inhibition zone assay; design: key: --: "-" means that no inhibition has been found; details: I and B 10 ul, L 5 ug
[8] = system: Agrobacterium tumefaciens DSM 3129; assay: Inhibition zone assay; design: key: --: "-" means that no inhibition has been found; details: I and B 10 ul, L 5 ug
[9] = system: Klebsiella aerogenes 1961 E; assay: Inhibition zone assay; design: key: --: "-" means that no inhibition has been found; details: I and B 10 ul, L 5 ug
[10] = system: Xanthomonas campestris pv. vesicatoria XV82-4; assay: Inhibition zone assay; design: key: --: "-" means that no inhibition has been found; details: I and B 10 ul, L 5 ug
[11] = system: Erwinia carotovora var. atroseptica NCPPB 549; assay: Inhibition zone assay; design: key: --: "-" means that no inhibition has been found; details: I and B 10 ul, L 5 ug
[12] = system: Listeria monocytogenes B5; assay: Inhibition zone assay; design: key: --: "-" means that no inhibition has been found; details: L 5 ug
[13] = system: Flavobacterium devorans NRRL B-54; assay: Inhibition zone assay; design: key: --: "-" means that no inhibition has been found; details: I and B 10 ul, L 5 ug
[14] = system: Bordetella bronchiseptica ATCC 19395; assay: Inhibition zone assay; design: key: --: "-" means that no inhibition has been found; details: I and B 10 ul, L 5 ug
[15] = system: Enterobacter agglomerans Gilardi 1081; assay: Inhibition zone assay; design: key: --: "-" means that no inhibition has been found; details: I and B 10 ul, L 5 ug
[16] = system: Bacillus megaterium QMB 1551; assay: Inhibition zone assay; details: I and B 10 ul, L 5 ug
[17] = system: Pseudomonas paucimobilis ATCC 29837; assay: Inhibition zone assay; design: key: --: "-" means that no inhibition has been found; details: L 5 ug
[18] = system: Serratia liquefaciens DSM 30125; assay: Inhibition zone assay; design: key: --: "-" means that no inhibition has been found; details: I 10 ul, L 5 ug
[19] = system: Corynebacterium fascians NCPPB 1488; assay: Inhibition zone assay; design: key: --: "-" means that no inhibition has been found; details: I and B 10 ul, L 5 ug
[20] = system: Agrobacterium rhizogenes ATCC 11325; assay: Inhibition zone assay; design: key: --: "-" means that no inhibition has been found; details: I and B 10 ul, L 5 ug
[21] = system: Corynebacterium insidiosum NCPPB 1109; assay: Inhibition zone assay; details: I and B 10 ul, L 5 ug
Description: Whole lymph or purified components, resuspended in PBS to a final volume equal to the starting material (heated lymph), was applied in 3 mm wells on agar plates seeded with the test organisms. Antibacterial activity was determined by measuring the growth-inhibition zones (in mm).

[22] = system: Pseudomonas acidovorans CuETM 83-109; assay: Inhibition zone assay; design: key: --: "-" means that no inhibition has been found; details: I and B 10 ul, L 5 ug
[23] = system: Erwinia salicis NCPPB 2530; assay: Inhibition zone assay; design: key: --: "-" means that no inhibition has been found; details: I and B 10 ul, L 5 ug
[24] = system: Xanthomonas campestris pv. oryzae IRN 235; design: key: --: "-" means that no inhibition has been found
[25] = system: Bacillus subtilis NRRL B-237; assay: Inhibition zone assay; design: key: --: "-" means that no inhibition has been found; details: I and B 10 ul, L 5 ug
[26] = system: Micrococcus lysodeikticus LMG 4050; assay: Inhibition zone assay; details: I and B 10 ul, L 5 ug
[27] = system: Azospirillum lipoferum ATCC 29707; assay: Inhibition zone assay; design: key: --: "-" means that no inhibition has been found; details: I and B 10 ul, L 5 ug
[28] = system: Bacillus thuringiensis DSM 3131; assay: Inhibition zone assay; design: key: --: "-" means that no inhibition has been found; details: I and B 10 ul, L 5 ug
[29] = system: Agrobacterium radiobacter ATCC 19358; assay: Inhibition zone assay; design: key: --: "-" means that no inhibition has been found; details: I and B 10 ul, L 5 ug
[30] = system: Rhizobium phaseoli CIAT 899; assay: Inhibition zone assay; design: key: --: "-" means that no inhibition has been found; details: I and B 10 ul, L 5 ug
[31] = system: Serratia plymuthica ATCC 183; assay: Inhibition zone assay; design: key: --: "-" means that no inhibition has been found; details: I and B 10 ul, L 5 ug
[32] = system: Staphylococcus hominis STH B3; assay: Inhibition zone assay; design: key: --: "-" means that no inhibition has been found; details: L 5 ug
[33] = system: Rhizobium meliloti ZB 314; assay: Inhibition zone assay; design: key: --: "-" means that no inhibition has been found; details: I and B 10 ul, L 5 ug
[34] = system: Citrobacter freundii ATCC 8090; assay: Minimal inhibitory concentration in liquid culture; details: 200 μl rich medium, 10^4 log-phase bacteria
[35] = system: Salmonella typhimurium ATCC 23565; assay: Minimal inhibitory concentration in liquid culture; details: 200 μl rich medium, 10^4 log-phase bacteria
[36] = system: Bacillus megaterium QB 1551; assay: Minimal inhibitory concentration in liquid culture; details: 200 μl rich medium, 10^4 log-phase bacteria, + = no inhibition at maximal value
[37] = system: Bacillus subtilis NRRL-B-237; assay: Minimal inhibitory concentration in liquid culture; details: 200 μl rich medium, 10^4 log-phase bacteria, + = no inhibition at maximal value
[38] = system: Rhizobium meliloti ZB 314; assay: Minimal inhibitory concentration in liquid culture; details: 200 μl rich medium, 10^4 log-phase bacteria
[39] = system: Escherichia coli NCTC 9001; assay: Minimal inhibitory concentration in liquid culture; details: 200 μl rich medium, 10^4 log-phase bacteria
[40] = system: Pseudomonas solanacearum ATCC 11696; details: 200 μl rich medium, 10^4 log-phase bacteria
[41] = system: Erwinia salicis NCPPB 2530; assay: Minimal inhibitory concentration in liquid culture; details: 200 μl rich medium, 10^4 log-phase bacteria
[42] = system: Pseudomonas syringae pv. tabaci NCPPB 1237; assay: Minimal inhibitory concentration in liquid culture; details: 200 μl rich medium, 10^4 log-phase bacteria
[43] = system: Pseudomonas syringae pv. tomato NCPPB 1106; assay: Minimal inhibitory concentration in liquid culture; details: 200 μl rich medium, 10^4 log-phase bacteria
[44] = system: Shigella flexneri CP 87; assay: Minimal inhibitory concentration in liquid culture; details: 200 μl rich medium, 10^4 log-phase bacteria
Description: (§1) In addition the exact concentration was determined precisely by amino-acid analysis and an equal sample of natural Bee 6b was prepared, allowing to compare the bactericidal activity of both natural and synthetic apidaecins by means of growth inhibition assays in liquid cultures (see mat & Meth.). The minimal inhibitory concentrations (μg/ml) were determined in liquid culture : 200 μl of a rich medium (trypticase soy broth or nutrient broth) was inoculated with 10^4 log-phase bacteria. Peptide concentrations ranged between 0 and 200 μg/ml. The values express μg/ml; when no inhibition was noticed the maximal values are given (+200 μg/ml or +50 μg/ml). All peptides were chemically synthesized, except for bee 6b which is purified from bee lymph.

[45] = system: Xanthomonas campestris pv. vesicatoria LMG 905; assay: Minimal inhibitory concentration in liquid culture; details: 200 μl rich medium, 10^4 log-phase bacteria, + = no inhibition at maximal value
Description: as §1

[46] = system: Corynebacterium insidiosum NCPPB 1109; assay: Minimal inhibitory concentration in liquid culture; details: 200 μl rich medium, 10^4 log-phase bacteria
Description: as §1

[47] = system: Corynebacterium michiganense pv. michiganense NCPPB 1573; assay: Minimal inhibitory concentration in liquid culture; details: 200 μl rich medium, 10^4 log-phase bacteria, + = no inhibition at maximal value
Description: as §1

[48] = system: Xanthomonas campestris pv. campestris A 902; assay: Minimal inhibitory concentration in liquid culture; details: 200 μl rich medium, 10^4 log-phase bacteria, + = no inhibition at maximal value
[49] = system: Erwinia carotovora var atroseptica LMG 2385; assay: Minimal inhibitory concentration in liquid culture; details: 200 μl rich medium, 10^4 log-phase bacteria
[50] = system: Erwinia carotovora var carotovora NCPPB 312; assay: Minimal inhibitory concentration in liquid culture; details: 200 μl rich medium, 10^4 log-phase bacteria
[51] = system: Salmonella Newport CD 94; assay: Minimal inhibitory concentration in liquid culture; details: 200 μl rich medium, 10^4 log-phase bacteria
[52] = system: Pseudomonas syringae pv. maculicola NCPPB 1776; assay: Minimal inhibitory concentration in liquid culture; details: 200 μl rich medium, 10^4 log-phase bacteria
[53] = system: E. coli NCTC 9001; assay: Bactericidal activity, method not stated; details: lyophilized apidaecins resuspended in PBS
[54] = system: Agrobactierium tumefaciens DSM 3129; assay: Minimal inhibitory concentration in liquid culture; details: 200 μl rich medium, 10^4 log-phase bacteria
[55] = system: Bacillus alvei LMG 6922; assay: Minimal inhibitory concentration in liquid culture; details: 200 μl rich medium, 10^4 log-phase bacteria, + = no inhibition at maximal value

chicken lysozyme: hen egg white lysozyme, comparison [reference compound]
diameter of growth-inhibition zone [1]: -- | diameter of growth-inhibition zone [2]: -- | diameter of growth-inhibition zone [3]: -- | diameter of growth-inhibition zone [4]: -- | diameter of growth-inhibition zone [5]: 4 mm | diameter of growth-inhibition zone [6]: -- | diameter of growth-inhibition zone [7]: -- | diameter of growth-inhibition zone [8]: -- | diameter of growth-inhibition zone [9]: -- | diameter of growth-inhibition zone [10]: -- | diameter of growth-inhibition zone [11]: -- | diameter of growth-inhibition zone [12]: -- | diameter of growth-inhibition zone [13]: -- | diameter of growth-inhibition zone [14]: -- | diameter of growth-inhibition zone [15]: -- | diameter of growth-inhibition zone [16]: 6 mm | diameter of growth-inhibition zone [17]: -- | diameter of growth-inhibition zone [18]: -- | diameter of growth-inhibition zone [19]: -- | diameter of growth-inhibition zone [20]: -- | diameter of growth-inhibition zone [21]: 6 mm | diameter of growth-inhibition zone [22]: -- | diameter of growth-inhibition zone [23]: -- | diameter of growth-inhibition zone [24]: -- | diameter of growth-inhibition zone [25]: -- | diameter of growth-inhibition zone [26]: 9 mm | diameter of growth-inhibition zone [27]: -- | diameter of growth-inhibition zone [28]: -- | diameter of growth-inhibition zone [29]: -- | diameter of growth-inhibition zone [30]: -- | diameter of growth-inhibition zone [31]: -- | diameter of growth-inhibition zone [32]: -- | diameter of growth-inhibition zone [33]: --

CC[C@H](C)[C@H](NC(=O)[C@@H]1CCCN1C(=O)[C@H](CCCNC(=N)N)NC(=O)[C@H](CC(N)=O)NC(=O)[C@H](CC(N)=O)NC(=O)CN)C(=O)N[C@@H](Cc1ccc(O)cc1)C(=O)N[C@H](C(=O)N1CCC[C@H]1C(=O)N[C@@H](CCC(N)=O)C(=O)N1CCC[C@H]1C(=O)N[C@@H](CCCNC(=N)N)C(=O)N1CCC[C@H]1C(=O)N1CCC[C@H]1C(=O)N[C@@H](Cc1c[nH]cn1)C(=O)N1CCC[C@H]1C(=O)N[C@@H](CCCNC(=N)N)C(=O)N[C@@H](CC(C)C)C(=O)O)[C@@H](C)CC [Apid II] (H-GNNRPIYIPQPRPPHPRL-OH)
minimal inhibitory concentration [34]: 0.2 µg/mL (≈ 0.0942 µM) | minimal inhibitory concentration [35]: 0.1 µg/mL (≈ 0.0471 µM) | minimal inhibitory concentration [36]: 100 µg/mL | minimal inhibitory concentration [37]: > 200 µg/mL | minimal inhibitory concentration [38]: 0.02 µg/mL (≈ 0.00942 µM) | minimal inhibitory concentration [39]: 0.2 µg/mL (≈ 0.0942 µM) | minimal inhibitory concentration [40]: 10 µg/mL (≈ 4.71 µM) | minimal inhibitory concentration [41]: 0.02 µg/mL (≈ 0.00942 µM) | minimal inhibitory concentration [42]: 1 µg/mL (≈ 0.471 µM) | minimal inhibitory concentration [43]: 0.1 µg/mL (≈ 0.0471 µM) | minimal inhibitory concentration [44]: 0.1 µg/mL (≈ 0.0471 µM) | minimal inhibitory concentration [45]: > 50 µg/mL | minimal inhibitory concentration [46]: 100 µg/mL (≈ 47.1 µM) | minimal inhibitory concentration [47]: > 50 µg/mL | minimal inhibitory concentration [48]: 50 µg/mL | minimal inhibitory concentration [49]: 0.5 µg/mL (≈ 0.236 µM) | minimal inhibitory concentration [50]: 2.5 µg/mL (≈ 1.18 µM) | minimal inhibitory concentration [51]: 0.2 µg/mL (≈ 0.0942 µM) | minimal inhibitory concentration [52]: 0.5 µg/mL (≈ 0.236 µM) | bactericidal activity [53]: possessed a bactericidal activity | minimal inhibitory concentration [54]: 0.2 µg/mL (≈ 0.0942 µM) | minimal inhibitory concentration [55]: > 200 µg/mL
